Values quoted from earlier work as cited in publication PMC9387934, “Randomized single oral dose phase 1 study of safety, tolerability, and pharmacokinetics of Iminosugar UV-4 Hydrochloride (UV-4B) in healthy subjects” (PLoS Neglected Tropical Diseases, 2022).
Structures can show the parent of a compound that is named as a salt.

Experiments:
CYP2C8 = tested on: CYP2C8; parameters: method as in Investigator’s Brochure (IB); settings: in vitro; ref Investigator’s Brochure (IB); cited from earlier work
CYP2E1 = tested on: CYP2E1; parameters: method as in Investigator’s Brochure (IB); settings: in vitro; ref Investigator’s Brochure (IB); cited from earlier work
[1] = parameters: method as in Investigator’s Brochure (IB); settings: in vitro; ref Investigator’s Brochure (IB); cited from earlier work
[2] = dog; cited from earlier work
[3] = tested on: cultured human lymphocytes; settings: in vitro; ref Investigator’s Brochure (IB); cited from earlier work

SMILES | Direct inhibition of CYP2C8 (CYP2C8) | Direct inhibition of CYP2E1 (CYP2E1) | Mutagenicity, mouse lymphoma assay [1] | Dose with decreased PLTs [2] | Dose with decreased arterial pulse pressure [2] | Dose with decreased reticulocytes [2] | Dose with decreased systolic pressure [2] | Dose with decreased thymus weight [2] | Dose with increased ALT [2] | Dose with increased AST [2] | Dose with increased aPTT [2] | Dose with increased diastolic pressure [2] | Dose with inverted AST/ALT ratio [2] | Dose with lymphocyte depletion in thymus, spleen, lymph nodes, and GALT [2] | Dose with nonformed feces [2] | Dose with salivation and vomitus [2] | Neurologic Effects [2] | Clastogenicity, chromosomal aberration in cultured human lymphocytes [3]
COCCCCCCCCCN1C[C@H](O)[C@@H](O)[C@H](O)[C@H]1CO [UV-4, N-(9’-methoxynonyl)-1-deoxynojirimycin] | No clinically relevant direct inhibition | No clinically relevant direct inhibition | – | – | – | – | – | – | – | – | – | – | – | – | – | – | – | –
COCCCCCCCCCN1C[C@H](O)[C@@H](O)[C@H](O)[C@H]1CO [UV-4B, N-(9’-methoxynonyl)-1-deoxynojirimycin hydrochloride] | – | – | not found to be mutagenic or clastogenic | 2 mg/kg/dose, TID | > 50 mg/kg | 10 mg/kg/dose, TID | > 50 mg/kg | ≥ 2 mg/kg/dose, TID | ≥ 2 mg/kg/dose, TID | ≥ 2 mg/kg/dose, TID | ≥ 10 mg/kg/dose, TID | > 50 mg/kg | 10 mg/kg/dose, TID | ≥ 2 mg/kg/dose, TID | ≥ 10 mg/kg/dose, TID | 60 mg/kg/dose, TID | none observed | not found to be mutagenic or clastogenic
